Laboratory results: paper PMC11460632, “Chemical modification of hyaluronan oligosaccharides differentially modulates hyaluronan–hyaladherin interactions” (The Journal of Biological Chemistry, 2024)
Entries after “also recorded” stand apart in the source; their conditions may differ. Read-outs that look alike come from different tables or passages of the source.

Tests used:
[1] = biological target: T1, Link_TSG6 (Homo sapiens, UniProt P98066); experiment: ITC of HA oligosaccharides binding to Link_TSG6; settings: for N: 0.029 mM Link_TSG6, 0.29 mM oligosaccharide
T1 construct: made in house
Protocol: ITC experiments were performed using a MicroCal PEAQ-ITC instrument (Malvern Instruments). Oligosaccharide stock solutions were prepared at 0.29 mM (in 5 mM MES, pH 6.0) and injected (18 × 2 μl with 120 s spacing between injections) into the cell containing ∼200 μl Link_TSG6 (0.029 mM) in matched buffer at 25 °C. Data were fit to a one site binding model, after subtracting the heats from the last three injections to account for heat of dilution of the oligosaccharide into buffer. Each oligosaccharide was analyzed in four independently performed ITC experiments.

[2] = biological target: T2, hisCD44_HABD^20–169 (Homo sapiens, UniProt P16070); experiment: MST of HA oligosaccharides binding to hisCD44_HABD^20–169; settings: for Kd: 10 mM Hepes pH 7.5, 150 mM NaCl, 0.05% Tween-20, 25 °C, three titrations, read-out: KD; for % Binding affinity hisCD44_HABD^20–169: Table 6, relative to unmodified oligosaccharide of the same length, by MST
T2 construct: A novel construct consisting of residues 20 to 169 of human CD44 and an N-terminal six-histidine tag; made in house
Protocol: For hisCD44_HABD^20–169, interactions with HA oligosaccharides were assessed using MST. Protein (200 nM) was labeled with 5 μM red-Tris-NTA-650 dye following the manufacturer’s instructions in 10 mM Hepes, pH 7.4, 150 mM NaCl, 0.05% (v/v) Tween-20 (interaction buffer). Stock solutions of HA oligosaccharides (5 mM in interaction buffer) were serially diluted (1:1 in interaction buffer) 16 times before each concentration was mixed with an equal volume of labeled protein (10 nM final concentration hisCD44_HABD^20–169). Samples were loaded into standard glass capillaries (NanoTemper) and thermophoresis measured at 25 °C (with active temperature control) using a Monolith NT.115pico instrument (NanoTemper) running NT Control software (version 1.0.1). All experiments were performed in triplicate and data analyzed with the “KD fit model” in the NT Analysis software (version 2.0.2).

[3] = biological target: T3, recombinant human TSG-6 (Homo sapiens, UniProt P19827+P98066); experiment: In vitro HC-transfer assay (IαI + rhTSG-6, Western blot anti-HC1); format: biochemical; settings: 15 μM HA, 1.8 μM IαI, rhTSG-6, 2 h at 37 °C; for Substrate for HC transfer: Table 6; for Activity as substrate for HC transfer (text): Western blot anti-HC1
T3 construct: TSG-6–mediated HC-transfer assays (using full-length TSG6); purchased R&D Systems
Protocol: Covalent transfer of HC from IαI onto unmodified and chemically modified HA oligosaccharides was analyzed using the assay described previously ([26]). All reactions were performed using a buffer of 20 mM Hepes, pH 7.5, 150 mM NaCl, and 5 mM MgCl2. In a “standard” assay, HA oligosaccharides were at 15 μM, human IαI ([97]) 1.8 at μM (based on a molecular weight of 180 kDa), and recombinant human TSG-6 (R&D Systems) at 2.8 μM (based on a molecular weight of 35 kDa). Reaction mixtures were analyzed by SDS-PAGE using 4 to 12% bis-tris polyacrylamide gels (Invitrogen). For Western blot analysis, proteins were transferred onto nitrocellulose membrane (GE Healthcare) and incubated with antisera against HC1 (CP7, 1:10,000; ([98])). Bound primary antibody was detected using goat-anti-rabbit IgG conjugated to IR dye (LI-COR Biosciences) and blots imaged using an Odyssey Clx near-IR fluorescence imaging system (LICOR Biosciences).

[4] = Table 4, ITC, 25 °C, 5 mM MES pH 6.0, mean ± SEM
[5] = Table 1, ITC, 25 °C, 5 mM MES pH 6.0, mean ± SEM, four titrations
[6] = Table 1, ITC, 25 °C, 5 mM MES pH 6.0, mean ± SEM

T3 sequence (P98066 18-277): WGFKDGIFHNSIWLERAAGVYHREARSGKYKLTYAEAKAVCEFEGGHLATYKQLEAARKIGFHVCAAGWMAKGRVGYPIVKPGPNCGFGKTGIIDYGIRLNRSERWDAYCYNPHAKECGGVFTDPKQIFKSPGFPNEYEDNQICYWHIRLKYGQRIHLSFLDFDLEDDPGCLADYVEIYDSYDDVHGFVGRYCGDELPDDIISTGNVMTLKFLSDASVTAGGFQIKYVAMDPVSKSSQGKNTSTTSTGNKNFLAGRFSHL
T3 sequence (P19827 35-672 limits assumed): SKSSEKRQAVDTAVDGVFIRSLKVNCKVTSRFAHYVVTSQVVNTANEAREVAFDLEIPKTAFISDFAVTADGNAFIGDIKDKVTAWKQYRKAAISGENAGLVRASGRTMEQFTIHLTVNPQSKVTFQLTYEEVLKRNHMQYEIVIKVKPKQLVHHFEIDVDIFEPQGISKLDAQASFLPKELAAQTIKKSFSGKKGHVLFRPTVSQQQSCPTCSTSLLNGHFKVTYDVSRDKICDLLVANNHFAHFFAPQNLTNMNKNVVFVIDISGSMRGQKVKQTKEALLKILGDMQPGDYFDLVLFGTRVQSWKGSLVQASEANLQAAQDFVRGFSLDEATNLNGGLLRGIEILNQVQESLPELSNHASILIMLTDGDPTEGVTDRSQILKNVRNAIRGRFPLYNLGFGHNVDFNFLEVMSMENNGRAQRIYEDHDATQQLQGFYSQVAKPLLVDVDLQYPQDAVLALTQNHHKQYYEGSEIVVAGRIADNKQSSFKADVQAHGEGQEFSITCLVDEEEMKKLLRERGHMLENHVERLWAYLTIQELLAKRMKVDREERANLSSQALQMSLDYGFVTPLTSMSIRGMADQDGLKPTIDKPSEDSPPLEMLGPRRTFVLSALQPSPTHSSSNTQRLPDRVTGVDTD
T2 sequence (P16070 20-169): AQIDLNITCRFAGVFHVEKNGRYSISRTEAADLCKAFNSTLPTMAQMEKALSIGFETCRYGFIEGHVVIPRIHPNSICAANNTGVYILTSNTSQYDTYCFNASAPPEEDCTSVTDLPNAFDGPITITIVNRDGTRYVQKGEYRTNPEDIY
T1 sequence (P98066 36-129 limits assumed): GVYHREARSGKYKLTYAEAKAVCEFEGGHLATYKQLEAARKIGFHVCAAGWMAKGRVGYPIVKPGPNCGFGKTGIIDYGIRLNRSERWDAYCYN

| SMILES | Substrate for HC transfer [3] | Activity as substrate for HC transfer (text) [3] | N [1, 5] | ΔG [1, 6] | ΔH [1, 6] | −TΔS [1, 6] | also measured |
| --- | --- | --- | --- | --- | --- | --- | --- |
| CC(=O)N[C@H]1[C@H](O[C@H]2[C@H](O)[C@@H](O)[C@H](O[C@H]3[C@H](O)[C@@H](CO)O[C@@H](O[C@H]4[C@H](O)[C@@H](O)[C@H](O[C@@H]([C@H](O)[C@H](O)CO)[C@H](CNc5cc[nH]n5)NC(C)=O)O[C@@H]4C(=O)O)[C@@H]3NC(C)=O)O[C@@H]2C(=O)O)O[C@H](CO)[C@@H](O)[C@@H]1O[C@@H]1O[C@H](C(=O)O)[C@@H](O)[C@H](O)[C@H]1O [HA6-3APY] | Yes | good substrates; also recorded: could become covalently coupled to an HC |  |  |  |  | N ([1]; Table 4, ITC, 25 °C, 5 mM MES pH 6.0, mean ± SEM, four titrations): 0.93 ± 0.02; ΔG [1, 4]: -7.77 ± 0.15 kcal/mol; ΔH [1, 4]: -7.82 ± 0.73 kcal/mol; −TΔS [1, 4]: 0.04 ± 0.87 kcal•mol^a1; Kd ([1]; Table 4, ITC, 25 °C, 5 mM MES pH 6.0, mean ± SEM, four titrations, read-out: KD): 2.24 ± 0.68 µM; % Binding affinity Link_TSG6 ([1]; Table 6, relative to unmodified oligosaccharide of the same length, by ITC): 49%; % of binding to hisCD44_HABD^20–169 compared to the unmodified oligosaccharide of the same length ([2]; MST): 91%; % HAx^AN: percentage of binding affinity (KB) compared to the unmodified oligosaccharide of the same length ([2]; Table 5, MST): 91%; Kd ([2]; Table 5, MST, mean ± SD): 113 ± 6 µM; % Binding affinity hisCD44_HABD^20–169 [2]: 91% |
| CC(=O)N[C@H]1[C@H](O[C@H]2[C@H](O)[C@@H](O)[C@H](O[C@H]3[C@H](O)[C@@H](CO)O[C@@H](O[C@H]4[C@H](O)[C@@H](O)[C@H](O[C@@H]([C@H](O)[C@H](O)CO)[C@H](CNc5cccc(C(=O)O)c5)NC(C)=O)O[C@@H]4C(=O)O)[C@@H]3NC(C)=O)O[C@@H]2C(=O)O)O[C@H](CO)[C@@H](O)[C@@H]1O[C@@H]1O[C@H](C(=O)O)[C@@H](O)[C@H](O)[C@H]1O [HA6-3AA] | No | No HC•HA6 complexes were observed | 1.05 ± 0.02 | -8.61 ± 0.10 kcal/mol | -6.30 ± 0.11 kcal/mol | -2.21 ± 0.83 kcal/mol | Activity as substrate for HC transfer (text) ([3]; listed as HA63AA): could become covalently coupled to an HC |
| CC(=O)N[C@H]1[C@H](O[C@H]2[C@H](O)[C@@H](O)[C@H](O[C@H]3[C@H](O)[C@@H](CO)O[C@@H](O[C@H]4[C@H](O)[C@@H](O)[C@H](O[C@H]5[C@H](O)[C@@H](CO)O[C@@H](O[C@H]6[C@H](O)[C@@H](O)[C@H](O[C@@H]([C@H](O)[C@H](O)CO)[C@H](CNc7ccc(C(=O)O)cc7)NC(C)=O)O[C@@H]6C(=O)O)[C@@H]5NC(C)=O)O[C@@H]4C(=O)O)[C@@H]3NC(C)=O)O[C@@H]2C(=O)O)O[C@H](CO)[C@@H](O)[C@@H]1O[C@@H]1O[C@H](C(=O)O)[C@@H](O)[C@H](O)[C@H]1O [HA8-4AA] | Yes | somewhat weaker substrate than HA8^AN | 0.86 ± 0.02 | -8.37 ± 0.04 kcal/mol | -11.53 ± 0.25 kcal/mol | 3.17 ± 0.26 kcal/mol |  |
| CC(=O)N[C@H]1[C@H](O[C@H]2[C@H](O)[C@@H](O)[C@H](O[C@H]3[C@H](O)[C@@H](CO)O[C@@H](O[C@H]4[C@H](O)[C@@H](O)[C@H](O[C@@H]([C@H](O)[C@H](O)CO)[C@H](CNc5ccccc5C(=O)O)NC(C)=O)O[C@@H]4C(=O)O)[C@@H]3NC(C)=O)O[C@@H]2C(=O)O)O[C@H](CO)[C@@H](O)[C@@H]1O[C@@H]1O[C@H](C(=O)O)[C@@H](O)[C@H](O)[C@H]1O [HA6-2AA] | Yes | good substrates; also recorded: could become covalently coupled to an HC | 1.03 ± 0.02 | -8.50 ± 0.04 kcal/mol | -7.84 ± 0.43 kcal/mol | -0.66 ± 0.41 kcal/mol |  |
| CC(=O)N[C@H]1[C@H](O[C@H]2[C@H](O)[C@@H](O)[C@H](O[C@H]3[C@H](O)[C@@H](CO)O[C@@H](O[C@H]4[C@H](O)[C@@H](O)[C@H](O[C@H]5[C@H](O)[C@@H](CO)O[C@@H](O[C@H]6[C@H](O)[C@@H](O)[C@H](O[C@@H]([C@H](O)[C@H](O)CO)[C@H](CNc7ccccc7C(=O)O)NC(C)=O)O[C@@H]6C(=O)O)[C@@H]5NC(C)=O)O[C@@H]4C(=O)O)[C@@H]3NC(C)=O)O[C@@H]2C(=O)O)O[C@H](CO)[C@@H](O)[C@@H]1O[C@@H]1O[C@H](C(=O)O)[C@@H](O)[C@H](O)[C@H]1O [HA8-2AA] | Yes | retained full activity as substrates | 1.06 ± 0.03 | -7.83 ± 0.13 kcal/mol | -12.55 ± 0.59 kcal/mol | 4.69 ± 0.73 kcal/mol |  |
| CC(=O)N[C@H]1[C@H](O[C@H]2[C@H](O)[C@@H](O)[C@H](O[C@H]3[C@H](O)[C@@H](CO)O[C@@H](O[C@H]4[C@H](O)[C@@H](O)[C@H](O[C@@H]([C@H](O)[C@H](O)CO)[C@H](CNc5ccc(C(=O)O)cc5)NC(C)=O)O[C@@H]4C(=O)O)[C@@H]3NC(C)=O)O[C@@H]2C(=O)O)O[C@H](CO)[C@@H](O)[C@@H]1O[C@@H]1O[C@H](C(=O)O)[C@@H](O)[C@H](O)[C@H]1O [HA6-4AA] | Yes | weak substrates | 1.02 ± 0.05 | -8.40 ± 0.08 kcal/mol | -7.57 ± 0.26 kcal/mol | -0.83 ± 0.34 kcal/mol |  |
| CC(=O)N[C@H]1[C@H](O[C@H]2[C@H](O)[C@@H](O)[C@H](O[C@@H]([C@H](O)[C@H](O)CO)[C@H](CNc3cccc(C(=O)O)c3)NC(C)=O)O[C@@H]2C(=O)O)O[C@H](CO)[C@@H](O)[C@@H]1O[C@@H]1O[C@H](C(=O)O)[C@@H](O)[C@H](O)[C@H]1O [HA4-3AA] | No |  |  |  |  |  | % of binding to hisCD44_HABD^20–169 compared to the unmodified oligosaccharide of the same length ([2]; MST): 260%; % HAn^AN: percentage of binding affinity (KB) compared to the unmodified oligosaccharide of the same length ([2]; Table 2, MST): 260%; Kd ([2]; Table 2, MST, mean (±SD)): 845 µM; % Binding affinity hisCD44_HABD^20–169 [2]: 260% |
| CC(=O)N[C@H]1[C@H](O[C@H]2[C@H](O)[C@@H](O)[C@H](O[C@H]3[C@H](O)[C@@H](CO)O[C@@H](O[C@H]4[C@H](O)[C@@H](O)[C@H](O[C@H]5[C@H](O)[C@@H](CO)O[C@@H](O[C@H]6[C@H](O)[C@@H](O)[C@H](O[C@@H]([C@H](O)[C@H](O)CO)[C@H](CNc7cccc(C(=O)O)c7)NC(C)=O)O[C@@H]6C(=O)O)[C@@H]5NC(C)=O)O[C@@H]4C(=O)O)[C@@H]3NC(C)=O)O[C@@H]2C(=O)O)O[C@H](CO)[C@@H](O)[C@@H]1O[C@@H]1O[C@H](C(=O)O)[C@@H](O)[C@H](O)[C@H]1O [HA8-3AA] | Yes |  | 1.05 ± 0.03 | -8.95 ± 0.13 kcal/mol | -8.53 ± 0.33 kcal/mol | -0.60 ± 0.09 kcal/mol |  |
